Data taken from patent US4560758A, “Process for preparing pyrrolo[1,2-a]imidazoles and imidazo[1,2-a]pyridines” (Pennwalt Corporation, priority 1984, dated 1985).
Structures can show the parent of a compound that is named as a salt.

Legend:
[1] = tested on: antibody secreting cells in the spleen; assay: Kennedy Plaque Assay (humoral immune system depressed by 6-mercaptopurine; number of plaques); format: in vivo; details: for change in vivo at 6.25 mg/kg: ip, 60 mg/Kg of 6 MP plus 6.25 mg/Kg (i.p.) of compound, read-out: Percent Restoration (+) or Suppression (-)
Protocol: In this assay, in which the in vitro model used was the Kennedy modification of the Jerne (or plaque) technique (J. C. Kennedy et al, Immunol., 20, p. 253 (1971)), the animal's humoral immune system is depressed artificially by the known immunosuppressant drug, 6-mercaptopurine (6-MP), and then the ability of a drug to either suppress it further or restore it towards normal is evaluated. The change in the number of plaques, which is a direct correlate of the change in the number of antibody secreting cells in the spleen, is used to measure this effect. For example, the compound of Example 11 results in greater than 100% restoration of the number of plaques and thus causes an immunoenhancement of the humoral system. In contrast, the compound of Example 28 results in about 24% further suppression of the number of plaques and thus behaves as an immunosuppressant.
of 6 MP plus 6.25 mg/Kg (i.p.)
^1 without 6MP treatment
^2 percent change from control (i.e., without 6MP)

murine marcophage cells = assay: Chemotaxis assay (migration of macrophages toward complement-derived chemoattractant); format: cell-based
Protocol: In this assay, done according to the methods of R. Synderman et al., Infection & Immunity, 11, p. 488-492 (1975) and M. S. Meltzer et al., J. Natl. Cancer Inst., 54, p. 795-799 (1975), the ability of a drug substance to influence the movement of cells responding to a stimulus induced by some foreign substance or injury is determined. This is vitro assay utilizes a chemoattractant, derived from a component of the immunological system known as complement, to induce murine marcophage cells to migrate toward it. The effect of a drug substance on such movements can be measured by counting the cells. […] For example, the compound of Example 15 stimulates migration by 35.6% at 10^-8 molar concentration and is thus immunoenhancing.

mouse hepatitis virus = assay: Antiviral assay - hepatitis in mice; format: in vivo; details: once daily for 3 days; for Mean Liver Score: day 4, 0 (normal) to 4 (extreme discoloration); for Percent Survival: day 21
Protocol: Female mice weighing approximately 21-24 grams were inoculated with 0.1 ml of a mouse liver suspension containing mouse hepatitis virus, which liver suspension is at a dilution of 10^-5.5. Starting twenty-four hours post-virus inoculation, the animals were intraperitoneally ("i.p.") or orally administered the test compound(s) once daily for 3 days. On day 4, one third to one half of each group of mice were sacrificed and their liver removed for examination. Each liver was scored and assigned a number from 0 (normal liver) to 4 (extreme discoloration). The mean liver score per group was computed. The number of animals surviving until termination of the study (day 21) was also recorded. Anti-hepatitis activity is evidenced by increased survivor numbers and improved liver scores.

[2] = 12.5 mg/Kg i.p., control 2.6 (Examples 11, 16, 23), 3.4 (25, 26)
[3] = 12.5 mg/Kg i.p., control 5% (Examples 11, 16, 23), 6% (25, 26)
[4] = 25 mg/Kg i.p., control 2.6 (Examples 11, 23), 3.4 (25, 26)
[5] = 25 mg/Kg i.p., control 5% (Examples 11, 23), 6% (25, 26)

## [O-][S+](c1ccccc1)C1CCCN2CC(c3ccccc3)N=C12 (stereo not drawn) [Example 28, 2,3,5,6,7,8-Hexahydro-2-phenyl-8-phenylsulfinylimidazo[1,2-a]pyridine sulfate]
[1]
  change in vivo at 6.25 mg/kg: -24%
[1]; with 6-MP
  further suppression of the number of plaques: about 24%

## COc1ccc(CSC2CCN3CC(c4ccccc4)N=C23)cc1 (stereo not drawn) [Example 3, 2,5,6,7-Tetrahydro-2-phenyl-7-p-methoxybenzylthio-3H-pyrrolo[1,2-a]imidazole hydrochloride]
Murine marcophage cells; 10^-5 m
  Percent Inhibition (-) or Enhancement (+) of migration: -94.9%
Murine marcophage cells; 10^-7 m
  Percent Inhibition (-) or Enhancement (+) of migration: -64.5%
Murine marcophage cells; 10^-8 m
  Percent Inhibition (-) or Enhancement (+) of migration: -43.0%
Murine marcophage cells; 10^-9 m
  Percent Inhibition (-) or Enhancement (+) of migration: -29.2%
[1]
  change in vivo at 6.25 mg/kg: 108%

## CSC1CCCN2CC(c3ccccc3)N=C12 (stereo not drawn) [Example 10, 2,3,5,6,7,8-Hexahydro-2-phenyl-8-methylthioimidazo[1,2-a]pyridine hydrochloride]
Murine marcophage cells; 10^-5 m
  Percent Inhibition (-) or Enhancement (+) of migration: -94.1%
Murine marcophage cells; 10^-7 m
  Percent Inhibition (-) or Enhancement (+) of migration: -94.4%
Murine marcophage cells; 10^-8 m
  Percent Inhibition (-) or Enhancement (+) of migration: -88.4%
Murine marcophage cells; 10^-9 m
  Percent Inhibition (-) or Enhancement (+) of migration: -91.7%
Murine marcophage cells; 10^-10 m
  Percent Inhibition (-) or Enhancement (+) of migration: -97.4%
Murine marcophage cells; 10^-11 m
  Percent Inhibition (-) or Enhancement (+) of migration: -97.3%
[1]
  change in vivo at 6.25 mg/kg: 55%

## Cc1ccc(SC2CCCN3CC(c4ccccc4)N=C23)cc1 (stereo not drawn) [Example 12, 2,3,5,6,7,8-Hexahydro-2-phenyl-8-p-tolylthioimidazo[1,2-a]pyridine sulfate (1:1) salt]
[1]
  change in vivo at 6.25 mg/kg: 50%

## c1ccc(SC2CCN3CC(c4ccccc4)N=C23)cc1 (stereo not drawn) [Example 2, 2,5,6,7-Tetrahydro-2-phenyl-7-phenyl-thio-3H-pyrrolo[1,2-a]imidazole hydrochloride]
[1]
  change in vivo at 6.25 mg/kg: 29%

## COc1ccc(C2CN3CCC(Sc4ccccc4)C3=N2)cc1 (stereo not drawn) [Example 8, 2,5,6,7-Tetrahydro-2-p-methoxyphenyl-7-phenylthio-3H-pyrrolo[1,2-a]imidazole hydrochloride]
[1]; without 6MP treatment, 6.25 mg/Kg (i.p.) of compound
  percent change from control (i.e., without 6MP): -36%

## c1ccc(CSC2CCCN3CC(c4ccccc4)N=C23)cc1 (stereo not drawn) [Example 14, 2,3,5,6,7,8-Hexahydro-2-phenyl-8-benzylthioimidazo[1,2-a]pyridine fumarate (1:1) salt]
Murine marcophage cells; 10^-5 m
  Percent Inhibition (-) or Enhancement (+) of migration: -29.1%
Murine marcophage cells; 10^-7 m
  Percent Inhibition (-) or Enhancement (+) of migration: -51.0%
Murine marcophage cells; 10^-8 m
  Percent Inhibition (-) or Enhancement (+) of migration: -51.0%
Murine marcophage cells; 10^-9 m
  Percent Inhibition (-) or Enhancement (+) of migration: -50.7%
Murine marcophage cells; 10^-10 m
  Percent Inhibition (-) or Enhancement (+) of migration: -10.2%
Murine marcophage cells; 10^-11 m
  Percent Inhibition (-) or Enhancement (+) of migration: -44.5%

## COC1(OC)CCCN2C1=NCC2c1ccccc1 (stereo not drawn) [Example 26, 2,3,5,6,7,8-Hexahydro-3-phenyl-8,8-dimethoxy imidazo[1,2-a]pyridine hydrochloride]
Mouse hepatitis virus; [2]
  Mean Liver Score: 2.7
Mouse hepatitis virus; [3]
  Percent Survival: 0%
Mouse hepatitis virus; [4]
  Mean Liver Score: 2.3
Mouse hepatitis virus; [5]
  Percent Survival: 0%

## CCCCSC1CCN2CC(c3ccccc3)N=C12 (stereo not drawn) [Example 7, 2,5,6,7-Tetrahydro-2-phenyl-7-n-butylthio-3H-pyrrolo[1,2-a]imidazole hydrochloride]
[1]
  change in vivo at 6.25 mg/kg: -49%

## Clc1ccc(SC2CCCN3CC(c4ccccc4)N=C23)cc1 (stereo not drawn) [Example 13, 2,3,5,6,7,8-Hexahydro-2-phenyl-8-p-chlorophenylthioimidazo[1,2-a]pyridine sulfate (1:1) salt]
[1]
  change in vivo at 6.25 mg/kg: 103%

## c1ccc(SC2(Sc3ccccc3)CCCn3cc(-c4ccccc4)nc32)cc1 [Example 33, 5,6,7,8-Tetrahydro-2-phenyl-8,8-diphenylthio imidazo[1,2-a]pyridine]
[1]
  change in vivo at 6.25 mg/kg: 25%

## COC1(OC)CCN2CC(c3ccccc3)N=C21 (stereo not drawn) [Example 25, 2,5,6,7-Tetrahydro-2-phenyl-7,7-dimethoxy-3H-pyrrolo[1,2-a]imidazole sulfate]
Mouse hepatitis virus; [2]
  Mean Liver Score: 2.6
Mouse hepatitis virus; [3]
  Percent Survival: 0%
Mouse hepatitis virus; [4]
  Mean Liver Score: 1.1
Mouse hepatitis virus; [5]
  Percent Survival: 0%
Mouse hepatitis virus; 50 mg/Kg i.p., control 3.4
  Mean Liver Score: 1.2
Mouse hepatitis virus; 50 mg/Kg i.p., control 6%
  Percent Survival: 0%
